Reference: patent publication US20240116985A1, “STAPLED PEPTIDES AND METHODS THEREOF” (priority 2020, published 2024)

These compounds were tested against T1, full-length beta-Catenin (Uniprot ID P35222) (Homo sapiens, UniProt P35222) (assay: Fluorescence polarization IC50 (beta-catenin / 5FAM-TCF4 10-53 competition)). Conditions: fluorescence polarization, beta-catenin; read-out: FP EC50.
T1 construct: 10 nM full-length beta-Catenin (Uniprot ID P35222)
T1 sequence (P35222 1-781): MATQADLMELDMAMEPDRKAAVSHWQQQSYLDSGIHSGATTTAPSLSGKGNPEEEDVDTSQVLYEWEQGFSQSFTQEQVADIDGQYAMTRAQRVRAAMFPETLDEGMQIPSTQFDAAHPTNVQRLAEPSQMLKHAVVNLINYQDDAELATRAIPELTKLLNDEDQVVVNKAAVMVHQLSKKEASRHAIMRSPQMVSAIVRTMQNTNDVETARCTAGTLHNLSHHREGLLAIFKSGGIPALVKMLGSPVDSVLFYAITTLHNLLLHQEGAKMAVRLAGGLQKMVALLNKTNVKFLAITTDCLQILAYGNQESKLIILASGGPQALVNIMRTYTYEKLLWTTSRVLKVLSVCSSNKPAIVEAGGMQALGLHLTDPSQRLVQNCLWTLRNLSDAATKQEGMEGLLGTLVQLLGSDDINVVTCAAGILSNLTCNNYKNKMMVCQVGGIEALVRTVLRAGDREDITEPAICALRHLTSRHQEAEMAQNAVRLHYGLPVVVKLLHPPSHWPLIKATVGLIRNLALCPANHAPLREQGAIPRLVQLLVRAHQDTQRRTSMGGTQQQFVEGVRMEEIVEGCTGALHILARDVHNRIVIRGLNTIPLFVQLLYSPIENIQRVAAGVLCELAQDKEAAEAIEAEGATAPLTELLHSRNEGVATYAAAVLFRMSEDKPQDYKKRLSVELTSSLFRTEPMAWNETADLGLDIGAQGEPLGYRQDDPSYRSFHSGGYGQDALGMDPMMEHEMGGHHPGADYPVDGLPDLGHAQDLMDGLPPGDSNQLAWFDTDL
Format: binding

IC50 | Structure (SMILES)
198 nM | CC(=O)N1CCC[C@]12CC=CCCCC1(CCCC=CCCCOC(=O)N3CC[C@@](C(=O)N[C@@H](Cc4ccccc4Cl)C(=O)N[C@@H](Cc4csc5ccccc45)C(=O)N[C@@H](CC(C)C)C(N)=O)(C3)NC(=O)[C@H](CC(C)C)NC(=O)[C@H](Cc3ccccc3)NC(=O)[C@H](C)NC(=O)[C@H](C)NC(=O)[C@H](CC(=O)O)NC(=O)[C@H](CC(=O)O)NC1=O)NC(=O)[C@H](CC(C)(C)C)NC(=O)[C@H](CC(=O)O)NC2=O (stereo partly drawn) [I-1417, Ac-PL3-Asp-Npg-B5-Asp-Asp-Ala-Ala-Phe-Leu-PyrS2-2C1F-BztA-Leu-NH2]

Same assay, conditions: fluorescence polarization; read-out: beta-Catenin FP IC50

Structure (SMILES) | IC50
CC(=O)N1CCC[C@]12CC=CCCCC1(CCCC=CCCCOC(=O)N3CC[C@@](C(=O)N[C@@H](Cc4ccsc4)C(=O)N[C@@H](Cc4csc5ccccc45)C(=O)N[C@@H](CCC(N)=O)C(N)=O)(C3)NC(=O)[C@H](CCC(C)C)NC(=O)[C@H](Cc3ccccc3)NC(=O)[C@H](C)NC(=O)[C@H](C)NC(=O)[C@H]([C@@H](C)O)NC(=O)[C@H](CC(N)=O)NC1=O)NC(=O)[C@H](CC(C)(C)C)NC(=O)[C@H](CC(=O)O)NC2=O (stereo partly drawn) [I-1620, Ac-PL3-Asp-Npg-B5-Asn-Thr-Ala-Ala-Phe-hLeu-PyrS2-3Thi-BztA-Gln-NH2] | 2060 nM
CCNC(=O)CC[C@H](NC(=O)[C@H](Cc1csc2ccccc12)NC(=O)[C@H](Cc1ccsc1)NC(=O)[C@]12CCN(C1)C(=O)OCCCC=CCCCC1(CCCC=CC[C@]3(CCCN3C(C)=O)C(=O)N[C@@H](CC(=O)O)C(=O)N[C@@H](CC(C)(C)C)C(=O)N1)C(=O)N[C@@H](CC(=O)O)C(=O)N[C@@H](Cc1cccc(C(=O)O)c1)C(=O)NC(C)(C)C(=O)N[C@@H](C)C(=O)N[C@@H](Cc1ccccc1)C(=O)N[C@@H](CC)C(=O)N2)C(=O)N[C@@H](C)C(N)=O (stereo partly drawn) [I-2473, Ac-PL3-Asp-Npg-B5-Asp-3COOHF-Aib-Ala-Phe-Abu-PyrS2-3Thi-BztA-[NHEt]GlnR-Ala-NH2] | 7 nM
CC(=O)N1CCC[C@]12CC=CCCCC1(CCCC=CCCCOC(=O)N3CC[C@@](C(=O)N[C@@H](Cc4ccccc4Cl)C(=O)N[C@@H](Cc4csc5ccccc45)C(=O)N[C@@H](CC(C)C)C(N)=O)(C3)NC(=O)[C@H](CC(C)C)NC(=O)[C@H](Cc3ccccc3)NC(=O)[C@H](C)NC(=O)[C@H](C)NC(=O)[C@H](CC(=O)O)NC(=O)[C@H](CC(=O)O)NC1=O)NC(=O)[C@H](CC(C)(C)C)NC(=O)[C@H](CC(=O)O)NC2=O (stereo partly drawn) [I-1417, Ac-PL3-Asp-Npg-B5-Asp-Asp-Ala-Ala-Phe-Leu-PyrS2-2C1F-BztA-Leu-NH2] | 198 nM
CC(=O)N1CCC[C@]12CC=CCCCC1(CCCC=CCCCOC(=O)N3CC[C@@](C(=O)N[C@@H](Cc4ccccc4C(F)(F)F)C(=O)N[C@@H](Cc4csc5ccccc45)C(=O)N[C@@H](CCC(N)=O)C(N)=O)(C3)NC(=O)[C@H](CC(N)=O)NC(=O)[C@H](Cc3ccccc3)NC(=O)[C@H](C)NC(=O)[C@H](C)NC(=O)[C@H]([C@@H](C)O)NC(=O)[C@H](CC(N)=O)NC1=O)NC(=O)[C@H](CC(C)(C)C)NC(=O)[C@H](CC(=O)O)NC2=O (stereo partly drawn) [I-1738, Ac-PL3-Asp-Npg-B5-Asn-Thr-Ala-Ala-Phe-Asn-PyrS2-2F3MeF-BztA-Gln-NH2] | 1060 nM
CC(C)C[C@@H]1NC(=O)[C@H](Cc2ccccc2)NC(=O)[C@H](C)NC(=O)[C@H](C)NC(=O)[C@H](CN(CC(=O)O)CC(F)(F)F)NC(=O)[C@H](CC(=O)O)NC(=O)C2(CCCCCCCCOC(=O)N3CC[C@@](C(=O)N[C@@H](Cc4ccsc4)C(=O)N[C@@H](Cc4csc5ccccc45)C(=O)N[C@@H](CCC(N)=O)C(N)=O)(C3)NC1=O)CCCCCCS(=O)(=O)N1CCC[C@@H]1C(=O)N[C@@H](CC(=O)O)C(=O)N[C@@H](CC(C)(C)C)C(=O)N2 (stereo partly drawn) [I-2267, ProSAm3-Asp-Npg-B5-Asp-TfeGA-Ala-Ala-Phe-Leu-PyrS2-3Thi-BztA-Gln-NH2] | 499 nM
CC(=O)N1CCC[C@]12CC=CCCCC1(CCCC=CCCCOC(=O)N3CC[C@@](C(=O)N[C@@H](Cc4ccsc4)C(=O)N[C@@H](Cc4csc5ccccc45)C(=O)N[C@@H](Cc4c[nH]cn4)C(N)=O)(C3)NC(=O)[C@H](CC(N)=O)NC(=O)[C@H](Cc3ccccc3)NC(=O)[C@H](C)NC(=O)[C@H](C)NC(=O)[C@H]([C@@H](C)O)NC(=O)[C@H](CC(N)=O)NC1=O)NC(=O)[C@H](CC(C)(C)C)NC(=O)[C@H](CC(=O)O)NC2=O (stereo partly drawn) [I-2141, Ac-PL3-Asp-Npg-B5-Asn-Thr-Ala-Ala-Phe-Asn-PyrS2-3Thi-BztA-His-NH2] | 310 nM
CC(=O)N1CCC[C@]12CCCCCCC1(CCCCCCCCOC(=O)N3CC[C@@](C(=O)N[C@@H](Cc4ccsc4)C(=O)N[C@@H](Cc4csc5ccccc45)C(=O)N[C@@H](CC(C)C)C(N)=O)(C3)NC(=O)[C@H]([C@@H](C)O)NC(=O)[C@H](Cc3ccccc3)NC(=O)[C@H](C)NC(=O)[C@H](CCCCNC(C)C)NC(=O)[C@H](CN(CC(=O)O)CC(F)(F)F)NC(=O)[C@H](CC(=O)O)NC1=O)NC(=O)[C@H](CC(C)(C)C)NC(=O)[C@H](CC(=O)O)NC2=O (stereo partly drawn) [I-1766, Ac-PL3-Asp-Npg-B5-Asp-TfeGA-iPrLys-Ala-Phe-Thr-PyrS2-3Thi-BztA-Leu-NH2] | 267 nM
CC(=O)N1CCC[C@]12CC=CCCCC1(CCCC=CCCOC(=O)N3CC[C@@](C(=O)N[C@@H](Cc4ccsc4)C(=O)N[C@@H](Cc4csc5ccccc45)C(=O)N[C@@H](CCC(N)=O)C(N)=O)(C3)NC(=O)[C@H](CC(C)C)NC(=O)[C@H](Cc3ccccc3)NC(=O)[C@H](C)NC(=O)[C@H](C)NC(=O)[C@H](CC(=O)O)NC(=O)[C@H](CC(=O)O)NC1=O)NC(=O)[C@H](CC(C)(C)C)NC(=O)[C@H](CC(=O)O)NC2=O (stereo partly drawn) [I-1814, Ac-PL3-Asp-Npg-B5-Asp-Asp-Ala-Ala-Phe-Leu-PyrS1-3Thi-BztA-Gln-NH2] | 189 nM
CC(=O)N1CCC[C@]12CC=CCCCC1(CCCC=CCCCOC(=O)N3CC[C@@](C(=O)N[C@@H](Cc4ccsc4)C(=O)N[C@@H](Cc4csc5ccccc45)C(=O)N[C@@H](CCC(N)=O)C(N)=O)(C3)NC(=O)[C@H](CC(N)=O)NC(=O)[C@H](Cc3cccc(C(F)(F)F)c3)NC(=O)[C@H](C)NC(=O)[C@H](C)NC(=O)[C@H]([C@@H](C)O)NC(=O)[C@H](CC(N)=O)NC1=O)NC(=O)[C@H](CC(C)(C)C)NC(=O)[C@H](CC(=O)O)NC2=O (stereo partly drawn) [I-2009, Ac-PL3-Asp-Npg-B5-Asn-Thr-Ala-Ala-3F3MeF-Asn-PyrS2-3Thi-BztA-Gln-NH2] | 1480 nM

Further compounds by falling IC50, results first:

IC50 | Structure (SMILES)
1590 nM | CC(=O)N1CCC[C@]12CC=CCCCC1(CCCC=CCCCOC(=O)N3CC[C@@](C(=O)N[C@@H](Cc4cccc(C(N)=O)c4)C(=O)N[C@@H](Cc4csc5ccccc45)C(=O)N[C@@H](CCO)C(N)=O)(C3)NC(=O)[C@H](CC(C)C)NC(=O)[C@H](Cc3ccccc3)NC(=O)[C@H](C)NC(=O)[C@H](CCCCNC(C)C)NC(=O)[C@H](CCC(N)=O)NC(=O)[C@H](CC(=O)O)NC1=O)NC(=O)[C@H](CC1CCCCC1)NC(=O)[C@H](CC(N)=O)NC2=O (stereo partly drawn) [I-2166, Ac-PL3-Asn-Cha-B5-Asp-Gln-iPrLys-Ala-Phe-Leu-PyrS2-3cbmf-BztA-Hse-NH2]
759 nM | CC(=O)N1CCC[C@]12CC=CCCCC1(CCCC=CCCCCCC[C@@](C)(C(=O)N[C@@H](Cc3ccsc3)C(=O)N[C@@H](Cc3csc4ccccc34)C(=O)N[C@@H](CCC(N)=O)C(N)=O)NC(=O)[C@H](CC(N)=O)NC(=O)[C@H](Cc3ccccc3)NC(=O)[C@H](C)NC(=O)[C@H](C)NC(=O)[C@H]([C@@H](C)O)NC(=O)[C@H](CC(N)=O)NC1=O)NC(=O)[C@H](CC(C)(C)C)NC(=O)[C@H](CC(=O)O)NC2=O (stereo partly drawn) [I-1617, Ac-PL3-Asp-Npg-B5-Asn-Thr-Ala-Ala-Phe-Asn-S8-3Thi-BztA-Gln-NH2]
612 nM | CC(=O)N1CCC[C@]12CC=CCCCC1(CCCC=CCCCOC(=O)N3CC[C@@](C(=O)N[C@@H](Cc4ccsc4)C(=O)N[C@@H](Cc4csc5ccccc45)C(=O)N[C@@H](CCC(N)=O)C(N)=O)(C3)NC(=O)[C@H](CC(N)=O)NC(=O)[C@H](Cc3ccccc3)NC(=O)[C@H](C)NC(=O)[C@H](C)NC(=O)[C@H]([C@@H](C)O)NC(=O)[C@H](CC(N)=O)NC1=O)NC(=O)[C@H](C)NC(=O)[C@H](CC(=O)O)NC2=O (stereo partly drawn) [I-2002, Ac-PL3-Asp-Ala-B5-Asn-Thr-Ala-Ala-Phe-Asn-PyrS2-3Thi-BztA-Gln-NH2]
235 nM | CC(=O)N1CCC[C@]12CC=CCCCC1(CCCC=CCOC(=O)N3CC[C@@](C(=O)N[C@@H](Cc4ccsc4)C(=O)N[C@@H](Cc4csc5ccccc45)C(=O)N[C@@H](CCC(N)=O)C(N)=O)(C3)NC(=O)[C@H](CC(N)=O)NC(=O)[C@H](Cc3ccccc3)NC(=O)[C@H](C)NC(=O)[C@H](C)NC(=O)[C@H](CC(=O)O)NC(=O)[C@H](CC(=O)O)NC1=O)NC(=O)[C@H](CC(C)(C)C)NC(=O)[C@H](CC(=O)O)NC2=O (stereo partly drawn) [I-1816, Ac-PL3-Asp-Npg-B5-Asp-Asp-Ala-Ala-Phe-Asn-PyrS-3Thi-BztA-Gln-NH2]
5 nM | CC(=O)N1CCC[C@]12CC=CCCCC1(CCCC=CCCCOC(=O)N3CC[C@@](C(=O)N[C@@H](Cc4ccsc4)C(=O)N[C@@H](Cc4csc5ccccc45)C(=O)N[C@@H](Cc4c[nH]cn4)C(N)=O)(C3)NC(=O)[C@H](CCC(N)=O)NC(=O)[C@H](Cc3ccccc3)NC(=O)[C@H](C)NC(=O)[C@H](C)NC(=O)[C@H](CC(=O)O)NC(=O)[C@H](CC(=O)O)NC1=O)NC(=O)[C@H](CC(C)(C)C)NC(=O)[C@H](CC(=O)O)NC2=O (stereo partly drawn) [I-1459, Ac-PL3-Asp-Npg-B5-Asp-Asp-Ala-Ala-Phe-Gln-PyrS2-3Thi-BztA-His-NH2]
